According to US20190202836A1, “SELECTIVE DUAL INHIBITORS OF PI3 DELTA AND GAMMA PROTEIN KINASES” (Rhizen Pharmaceuticals SA, priority 2014, published 2019):

Key:
[1] = target: PI3Kγ (Homo sapiens, UniProt P48736); experiment: Assay 4: fMLP induced CD63 expression in basophils from human whole blood; type: cell-based; set-up: endogenous in cells; host or cells: basophils in human whole blood; details: n=1, read-out: IC50 for fMLP (PI3K γ), CD63 positive basophils
Method: PI3K δ and γ signaling in basophils manifested by an alteration of anti-FcεR1 or fMLP induced CD63 expression is a useful pharmacodynamic marker determined using the Flow2CAST® kit (Buhlmann Laboratories, Switzerland). The test procedure involves the following steps: • Mix the anti-coagulated blood sample by inverting the venipuncture tube several times; • Prepare fresh and pyrogen-free 3.5 ml polypropylene or polystyrene tubes suitable for Flow Cytometry measurements; • Add 49 μl of patient's whole blood to each tube; • Add 1 μl of 10% DMSO (background) or test compound (10% DMSO) to the assigned tubes and mix gently. Incubate at room temperature for 15 minutes; • Pipet 50 μl of the Stimulation buffer (background) or anti-FcεRI Ab or fMLP to each tube; • Add 100 μl of Stimulation Buffer to each tube; • Mix gently. Add 20 μl Staining Reagent (1:1 mix of FITC-CD63 and PE-CCR3) to each tube; • Mix gently, cover the tubes and incubate for 15 minutes at 37° C. in a water bath. […]
Percent CD63 positive cells within the gated basophil population were determined in different treatment groups and normalized to vehicle control.

[2] = target: T1, PI3K delta (Homo sapiens, UniProt O00329); experiment: Assay 4A1: Anti-IgM induced B-cell proliferation; type: cell-based; details: isolated human B-cells, 72 hours; read-out: Cellular IC50 PI3K delta (anti-IgM induced human B-cell proliferation)
T1 construct: endogenous in cells; host or cells: isolated human B-cells
T1 sequence (O00329 whole entry): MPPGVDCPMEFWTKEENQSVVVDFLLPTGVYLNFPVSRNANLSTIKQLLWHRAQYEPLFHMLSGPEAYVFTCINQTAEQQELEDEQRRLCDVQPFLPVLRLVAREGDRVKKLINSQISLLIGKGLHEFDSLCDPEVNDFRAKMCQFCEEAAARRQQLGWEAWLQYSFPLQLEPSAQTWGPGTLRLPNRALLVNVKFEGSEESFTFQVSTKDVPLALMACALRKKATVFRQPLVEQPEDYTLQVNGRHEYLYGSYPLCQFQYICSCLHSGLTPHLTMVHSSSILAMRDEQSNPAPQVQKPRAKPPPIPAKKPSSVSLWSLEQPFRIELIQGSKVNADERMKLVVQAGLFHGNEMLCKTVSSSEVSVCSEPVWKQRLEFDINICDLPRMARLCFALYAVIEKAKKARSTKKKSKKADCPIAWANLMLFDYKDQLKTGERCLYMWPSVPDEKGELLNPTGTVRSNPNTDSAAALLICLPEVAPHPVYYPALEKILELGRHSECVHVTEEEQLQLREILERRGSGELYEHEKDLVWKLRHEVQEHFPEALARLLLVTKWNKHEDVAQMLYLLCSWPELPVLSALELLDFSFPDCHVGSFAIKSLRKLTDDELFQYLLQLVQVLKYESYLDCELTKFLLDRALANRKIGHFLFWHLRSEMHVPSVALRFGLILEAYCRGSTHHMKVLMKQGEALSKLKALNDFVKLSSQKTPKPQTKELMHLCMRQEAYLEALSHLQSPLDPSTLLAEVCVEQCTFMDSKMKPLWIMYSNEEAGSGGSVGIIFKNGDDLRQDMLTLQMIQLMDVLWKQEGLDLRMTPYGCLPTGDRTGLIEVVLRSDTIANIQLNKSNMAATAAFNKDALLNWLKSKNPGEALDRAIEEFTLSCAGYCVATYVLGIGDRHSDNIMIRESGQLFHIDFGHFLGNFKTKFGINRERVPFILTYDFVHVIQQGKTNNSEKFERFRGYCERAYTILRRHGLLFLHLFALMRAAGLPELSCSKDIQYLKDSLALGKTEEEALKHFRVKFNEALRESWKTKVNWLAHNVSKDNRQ
T1 sequence (P27986 whole entry partner): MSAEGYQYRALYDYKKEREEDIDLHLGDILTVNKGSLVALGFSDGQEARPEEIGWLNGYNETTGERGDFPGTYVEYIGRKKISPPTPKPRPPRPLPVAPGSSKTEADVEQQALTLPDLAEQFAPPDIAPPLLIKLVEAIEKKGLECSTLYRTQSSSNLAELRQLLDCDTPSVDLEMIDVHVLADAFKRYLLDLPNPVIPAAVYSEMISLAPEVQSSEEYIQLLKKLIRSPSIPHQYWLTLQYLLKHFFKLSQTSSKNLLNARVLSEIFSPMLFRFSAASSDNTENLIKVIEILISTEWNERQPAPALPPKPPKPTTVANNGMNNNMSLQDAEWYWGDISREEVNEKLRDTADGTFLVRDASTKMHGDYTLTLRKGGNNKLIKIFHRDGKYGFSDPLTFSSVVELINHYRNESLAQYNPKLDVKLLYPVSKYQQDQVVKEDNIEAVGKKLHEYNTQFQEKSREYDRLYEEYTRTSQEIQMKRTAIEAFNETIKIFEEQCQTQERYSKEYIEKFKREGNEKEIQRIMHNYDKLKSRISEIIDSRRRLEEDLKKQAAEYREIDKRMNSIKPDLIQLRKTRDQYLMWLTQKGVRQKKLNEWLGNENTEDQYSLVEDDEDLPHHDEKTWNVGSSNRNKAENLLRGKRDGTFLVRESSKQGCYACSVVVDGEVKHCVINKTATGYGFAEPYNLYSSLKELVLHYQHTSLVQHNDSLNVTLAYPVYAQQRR
Method: The objective of this study was to assess the inhibitory potential of Compound A1 on anti-IgM induced human B-cell proliferation.
Isolated B-cells were re-suspended to 1.0×10^6 cells per ml. 100 μl of cell suspension was added to each well of a 96-well plate. Triplicates were maintained.
50 μl of drug dilution was added and mixed well. A DMSO blank and inducer blank were maintained.
The treated plate was incubated for 30 minutes at 37° C., 5% CO2 and then 50 μl of 4× inducer was added and mixed by pipetting.
The plate was incubated at 37° C., 5% CO2 for 72 hours.
Media was aspirated and 150 μl of DMSO was added to dissolve the formazan crystals.
Absorbance was read at A560 and A640 nm.

[3] = Metabolic stability in human liver microsomes; type: in vitro ADME; details: 1 μM test item, 60 minutes, 37° C., NADPH
Method: (§1) Metabolic stability studies were conducted on Compounds A, A1, and A2 as well as Example 128 of WO 2012/151525 using mouse, rat, dog, monkey, and human liver microsomes. The protocol for the studies with mouse, rat, and human liver microsomes (all from BD Gentest, USA) is provided below. 0.4 mg protein was preincubated with 2 mM NADPH (cofactor) in phosphate buffer (pH-7.4) for 15 minutes at 37° C. and then added with 1 μM test item and incubated further for 60 minutes in triplicate. The reaction mixture was terminated with methanol containing an internal standard and centrifuged further to analyze the test item remaining in the supernatant by LC-MS/MS. The percent parent compound remaining was calculated in comparison with similar samples terminated at 0 minutes.

[4] = tested on: IL-2; experiment: Assay 6A: Cytokine assay in human PBMC, PHA induced IL-2; type: cell-based; details: PHA 20 μg/ml, 24 hours, 2-3 independent experiments, read-out: EC50, antigen-induced IL-2
Method: The objective of this study was to assess the inhibitory potential of Compound A1 on antigen-induced cytokine release in human PBMC
• Heparinized human whole blood was diluted 1:1 with PBS, over laid on leukocyte separation medium and centrifuged at 400 g for 40 minutes. • Buffy layer was removed and washed with PBS • 0.15*10^6 of PBMCs were plated in 100 μl per well in RPMI media and incubated for 2 h. • 50 μl of 3× of the compound dilution in media was added and incubated for 15 min. • TNFα—induced with 50 μl of LPS in RPMI such that final concentration was 1 μg/ml. Supernatant was collected at 6 hours. • IL-2-induced with 50 μl of PHA in RPMI such that final concentration was 20 μg/ml. Supernatant was collected at 24 hours. • IL-4-induced with 50 μl of PHA in RPMI such that final concentration was 20 μg/ml.
EC50 values were calculated from 2-3 independent experiments.

[5] = Plasma protein binding (equilibrium dialysis), monkey; type: in vitro ADME; details: pH 7.4, 37° C.
Method: Below is provided the procedure for measuring plasma protein binding (using an equilibrium dialysis method). 745 μL of plasma was transferred into a 2 ml micro centrifuge tube. To that 5 μL of Compound A1 (150 μM) was added. Samples were mixed in the table top vortexer for 2 minutes. 50 μL plasma (n=2) was transferred in a pre-labeled 1.5 mL micro centrifuge tube treated as 0 hour sample.
The remaining 650 μL plasma sample were incubated for 30 minutes at 37° C. in a water bath. After 30 minute incubation, 50 μL plasma (n=2) was removed in a pre-labelled 1.5 mL micro centrifuge tube treated as 0.5 hour sample. 200 μL of the plasma sample (n=2) was transferred into the sample chamber which was indicated by the red ring. The red insert was placed into the base plate and 350 μL of buffer was transferred into the buffer chamber. Plates were incubated at 37° C. at approximately 100 RPM on an orbital shaker or 20 RPM on an up-and-down shaker for 4 hours. 50 μL of post dialysis-sample from the buffer and the plasma chambers were transferred into a pre-labelled micro centrifuged tube. 50 μL of plasma was added to the buffer samples and an equal volume of buffer (KH2PO4 Buffer pH 7.4) to the collected plasma samples. 150 μL of methanol containing internal standard (Tolbutamide 250 ng/ml) was added to precipitate the protein and release compound. […]

[6] = Metabolic stability in mouse liver microsomes; type: in vitro ADME; details: 1 μM test item, 60 minutes, 37° C., NADPH
Method: as §1

[7] = Oral pharmacokinetics in mice; type: in vivo; details: mouse, plasma, 10 mg/kg
[8] = Metabolic stability in rat liver microsomes; type: in vitro ADME; details: 1 μM test item, 60 minutes, 37° C., NADPH
Method: as §1

Chain of PI3Kγ (P48736 whole entry): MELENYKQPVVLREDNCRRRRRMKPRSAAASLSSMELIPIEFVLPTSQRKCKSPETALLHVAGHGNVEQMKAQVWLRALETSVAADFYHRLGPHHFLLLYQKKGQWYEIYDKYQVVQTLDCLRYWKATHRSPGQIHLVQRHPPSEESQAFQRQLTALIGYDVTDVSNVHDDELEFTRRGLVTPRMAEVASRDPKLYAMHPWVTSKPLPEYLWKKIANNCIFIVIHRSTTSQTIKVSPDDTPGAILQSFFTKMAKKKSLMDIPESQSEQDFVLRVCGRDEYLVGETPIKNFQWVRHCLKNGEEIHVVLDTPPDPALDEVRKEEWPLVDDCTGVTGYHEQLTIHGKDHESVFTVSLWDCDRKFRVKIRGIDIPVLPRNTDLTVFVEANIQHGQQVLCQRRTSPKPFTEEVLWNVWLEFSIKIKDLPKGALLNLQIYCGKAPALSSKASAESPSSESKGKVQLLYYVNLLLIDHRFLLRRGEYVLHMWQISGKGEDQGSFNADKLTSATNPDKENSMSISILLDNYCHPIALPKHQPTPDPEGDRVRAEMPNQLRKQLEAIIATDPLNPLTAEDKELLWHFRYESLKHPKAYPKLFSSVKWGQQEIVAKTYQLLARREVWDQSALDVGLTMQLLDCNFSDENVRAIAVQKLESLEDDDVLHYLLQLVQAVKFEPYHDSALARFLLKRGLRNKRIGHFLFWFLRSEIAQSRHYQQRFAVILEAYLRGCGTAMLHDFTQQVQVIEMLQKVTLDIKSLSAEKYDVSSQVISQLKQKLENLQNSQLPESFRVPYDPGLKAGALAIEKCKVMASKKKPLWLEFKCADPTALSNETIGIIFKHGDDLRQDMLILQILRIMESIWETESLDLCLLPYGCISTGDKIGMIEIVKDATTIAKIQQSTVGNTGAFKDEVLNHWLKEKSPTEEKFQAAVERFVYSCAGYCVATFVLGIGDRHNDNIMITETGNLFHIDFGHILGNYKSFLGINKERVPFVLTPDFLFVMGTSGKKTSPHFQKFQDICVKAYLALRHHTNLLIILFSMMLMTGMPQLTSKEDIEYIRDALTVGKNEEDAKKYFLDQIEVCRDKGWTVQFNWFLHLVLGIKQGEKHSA

In the case of `COc1ccc(-c2nn([C@@H](C)c3oc4cccc(F)c4c(=O)c3-c3cccc(F)c3)c3ncnc(N)c23)cc1NS(C)(=O)=O` [Compound A1, (S)—N-(5-(4-amino-1-(1-(5-fluoro-3-(3-fluorophenyl)-4-oxo-4H-chromen-2-yl)ethyl)-1H-pyrazolo[3,4-d]pyrimidin-3-yl)-2-methoxyphenyl)methanesulfonamide], the IC50 [1] is reported as under 70 nM, the IC50 [2] is reported as 11 nM and the “Metabolic stability in liver microsomes (percent parent compound remaining), Human” value [3] is reported as 95.7%. For the same compound, the EC50 [4] was 9.5 nM, the fraction unbound at 4 h, 1 μM [5] was 0.0529 and the “Metabolic stability in liver microsomes (percent parent compound remaining), Mouse” value [6] was 85.9%. For the same compound, the AUC(0-t) [7] was 7.49 µM·h, the Cmax [7] was 3.78 µM and the Tmax [7] was 30 min. The half-life [7] was 87 min and the “Metabolic stability in liver microsomes (percent parent compound remaining), Rat” value [8] was 94.2%.
